These are literature values, as cited in patent US10736889B2, “Method of treating dyskinesia” (Rutgers, The State University of New Jersey, priority 2011, dated 2020).

Like-named read-outs stand apart in the source and are kept apart here.

The test system of data set [1] is LID. The conditions noted are these: only drug available.
The target of another data set is κ-opioid receptors (Homo sapiens, UniProt P41145). The conditions noted are these: for IC50: read-out: IC50 for κ-opioid receptors; for Ki: read-out: Ki for κ-opioid receptors.
κ-opioid receptors, sequence (P41145 whole entry): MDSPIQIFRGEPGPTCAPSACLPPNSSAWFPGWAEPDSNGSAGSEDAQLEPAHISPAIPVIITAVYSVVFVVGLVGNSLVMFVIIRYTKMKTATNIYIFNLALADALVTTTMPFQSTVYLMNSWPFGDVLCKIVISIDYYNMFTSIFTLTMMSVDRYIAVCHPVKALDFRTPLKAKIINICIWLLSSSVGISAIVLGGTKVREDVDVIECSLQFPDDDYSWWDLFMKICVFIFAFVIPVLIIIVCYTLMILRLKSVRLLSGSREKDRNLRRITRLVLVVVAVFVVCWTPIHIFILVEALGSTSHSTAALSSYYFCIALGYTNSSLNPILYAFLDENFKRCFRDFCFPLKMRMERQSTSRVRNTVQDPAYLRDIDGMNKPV
Another data set concerns the target μ-opioid receptors (Homo sapiens, UniProt P35372). Particulars: for Ki: read-out: Ki for μ-opioid receptors.
A further data set has as its target δ-opioid receptors (Homo sapiens, UniProt P41143). Particulars: for Ki: read-out: Ki for δ-opioid receptors.
For data set [2], the system named is LID. The conditions noted are these: variable effects in monkeys and humans.
Data set [3] has as its system 6-hydroxydopamine-lesioned rat model.
Data set [4] relates to LID. The conditions noted are these: in vivo.
The conditions of data set [5]: compared with Nalbuphine itself.
Data set [6] deals with hemiparkinsonian marmoset monkeys. Particulars: lower doses.

δ-opioid receptors, sequence (P41143 whole entry): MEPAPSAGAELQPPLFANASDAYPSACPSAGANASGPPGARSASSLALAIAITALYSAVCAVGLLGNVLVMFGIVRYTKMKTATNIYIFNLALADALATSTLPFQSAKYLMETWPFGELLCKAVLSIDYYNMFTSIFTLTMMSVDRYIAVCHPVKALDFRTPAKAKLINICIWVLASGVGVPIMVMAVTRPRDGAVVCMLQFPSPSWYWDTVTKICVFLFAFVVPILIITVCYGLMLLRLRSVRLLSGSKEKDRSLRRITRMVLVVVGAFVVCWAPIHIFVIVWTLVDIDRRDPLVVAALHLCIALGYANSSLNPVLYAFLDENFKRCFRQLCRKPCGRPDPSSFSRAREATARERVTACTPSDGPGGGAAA
μ-opioid receptors, sequence (P35372 whole entry): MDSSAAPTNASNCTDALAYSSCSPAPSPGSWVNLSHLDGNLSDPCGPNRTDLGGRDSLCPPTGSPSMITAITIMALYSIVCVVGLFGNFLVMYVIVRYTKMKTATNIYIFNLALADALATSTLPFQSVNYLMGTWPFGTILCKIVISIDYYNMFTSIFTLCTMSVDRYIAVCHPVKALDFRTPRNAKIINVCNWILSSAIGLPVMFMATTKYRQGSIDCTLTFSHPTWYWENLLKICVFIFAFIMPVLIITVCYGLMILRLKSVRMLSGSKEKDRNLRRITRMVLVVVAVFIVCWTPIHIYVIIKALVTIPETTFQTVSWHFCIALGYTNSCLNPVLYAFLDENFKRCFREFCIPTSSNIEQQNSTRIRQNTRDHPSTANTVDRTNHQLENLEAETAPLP

In the case of `Cl.NC12CC3CC(CC(C3)C1)C2` [amantadine, 1-adamantanamine hydrochloride], in the data set with LID [1], the LID entry is reported as “modestly reduce LID”.

Consider `CNCC[C@@H](Oc1ccccc1C)c1ccccc1` [Atomoxetine], for which the IC50 at κ-opioid receptors is ~4380 nM; on μ-opioid receptors, ~4.19 µM; on δ-opioid receptors (read-out: IC50 for δ-opioid receptors), < 5 µM. With `O=C1CC[C@@]2(O)[C@H]3Cc4ccc(O)c5c4[C@@]2(CCN3CC2CC2)[C@H]1O5` [Naltrexone], in the data set on LID [2], the LID entry is “no change, increases or decreases”. Consider `NC(=O)c1ccc2c(c1O)[C@]13CCN(CC4CC4)C(C2)[C@]1(O)CCC(=O)C3` [Samidorphan], for which the figures for the Ki on κ-opioid receptors, on μ-opioid receptors and on δ-opioid receptors were ~0.23 nM, ~0.052 nM and ~2.6 nM, respectively. As to `Oc1ccc2c3c1O[C@H]1c4oc5ccccc5c4C[C@@]4(O)[C@@H](C2)N(CC2CC2)CC[C@]314` [Naltriben], the Ki at κ-opioid receptors is ~82.8 nM; at μ-opioid receptors it was ~19.8 nM.

For `Oc1ccc2c3c1O[C@H]1c4[nH]c5c(c4C[C@@]4(O)[C@@H](C2)N(CC2CC2)CC[C@]314)C[C@@]1(O)[C@H]2Cc3ccc(O)c4c3[C@@]1(CCN2CC1CC1)[C@H]5O4` [nor-BNI], in data set [3], the levodopa-induced hyperkinesias result is “moderates”.

N-allyl-normorphine [Nalorphine]: on δ-opioid receptors, the Ki was ~6.33 nM. Turning to `CC(C)=CCN1CC[C@@]2(C)c3cc(O)ccc3C[C@@H]1C2C` (stereo in doubt) [Pentazocine], at κ-opioid receptors, the Ki was ~2.2 nM. As to `COc1cccc2c1[C@]13CCN(CC4CC4)[C@H](C2)[C@]1(OC)CCC(=O)C3` [cyprodime], the “peak-dose LID” value with LID [4] is recorded as “significantly reduces”. Consider `O=C(CCCCCCCCC(=O)Oc1ccc2c3c1O[C@H]1[C@@H](O)CC[C@@]4(O)[C@@H](C2)N(CC2CCC2)CC[C@]314)Oc1ccc2c3c1O[C@H]1[C@@H](O)CC[C@@]4(O)[C@@H](C2)N(CC2CCC2)CC[C@]314` [sebacoyl di-Nalbuphine ester], for which the bioavailability result in data set [5] is recorded as “improved over that of Nalbuphine itself”. With `Oc1ccc2c3c1O[C@H]1c4[nH]c5ccccc5c4C[C@@]4(O)[C@@H](C2)N(CC2CC2)CC[C@]314` [naltrindole], the levodopa-induced rotations result in data set [6] is listed as “reduce levodopa-induced rotations”.

Consider `C=CCN1CC[C@]23c4c5ccc(O)c4O[C@H]2C(=O)CC[C@@]3(O)[C@H]1C5` [Naloxone], for which, in the data set on LID [2], the LID result is recorded as “no change, increases or decreases”. Regarding `CCC12CCN(CC3(O)CC3)C(Cc3ccc(O)cc31)C2(C)C` (stereo not shown) [Bremazocine], on κ-opioid receptors, the IC50 was ~0.16 nM. Also, the Ki at δ-opioid receptors is < 1000 nM. Take `Oc1ccc2c(c1)[C@@]13CCCC[C@@]1(O)[C@@H](C2)N(CC1CCC1)CC3` [Butorphanol]: the Ki on κ-opioid receptors was ~0.12 nM; on δ-opioid receptors it was ~12 nM. As for `C=CCN1CCC2(C)c3cc(O)ccc3CC1C2C` (stereo not shown) [Alazocine], the Ki on κ-opioid receptors is ~4.7 nM; on μ-opioid receptors it was ~3 nM; on δ-opioid receptors, ~15 nM. Regarding `C=CCN1CC[C@]23c4c5ccc(OC)c4O[C@H]2[C@@H](O)C=C[C@H]3[C@H]1C5` [Nalodeine], the Ki at δ-opioid receptors is < 1000 nM.

The IC50 is the concentration needed to halve the response being measured. One may read the Ki as the equilibrium dissociation constant of an inhibitor or competing ligand from its target.
